Experimental data taken from the CheMixHub viscosity set.
Several values for one entry are separate records, joined by “and”; a condition that tells them apart may be missing. Equal entries are not always repeated.

Test: xn = mol fraction of the nth substance listed

O[C@H]1[C@H](O)[C@@H](O)[C@H](O)[C@@H](O)[C@H]1O + O
viscosity
Settings | x1 = 0.0018 | x1 = 0.002 | x1 = 0.00359 | x1 = 0.004 | x1 = 0.005 | x1 = 0.00538 | x1 = 0.00715 | x1 = 0.00893
293.15 K, 101 kPa | 1.051 mPa·s | – | 1.102 mPa·s | – | – | 1.154 mPa·s | 1.23 mPa·s | 1.281 mPa·s
293.15 K, 101.3 kPa | – | 1.035 mPa·s | – | 1.086 mPa·s | 1.138 mPa·s | – | – | –
298.15 K, 101.3 kPa | – | 0.945 mPa·s | – | 0.986 mPa·s | 1.006 mPa·s | – | – | –
303.15 K, 101 kPa | 0.836 mPa·s | – | 0.875 mPa·s | – | – | 0.911 mPa·s | 0.97 mPa·s | 1.001 mPa·s and 1.011 mPa·s
303.15 K, 101.3 kPa | – | 0.821 mPa·s | – | 0.861 mPa·s | 0.899 mPa·s | – | – | –
313.15 K, 101 kPa | 0.685 mPa·s | – | 0.728 mPa·s | – | – | 0.742 mPa·s | 0.789 mPa·s | 0.82 mPa·s
323.15 K, 101 kPa | 0.577 mPa·s | – | 0.601 mPa·s | – | – | 0.618 mPa·s | 0.658 mPa·s | 0.684 mPa·s

Cc1cc(C)cc(C)c1 + O=C1CCCCC1
viscosity [mPa·s], 101.33 kPa
Settings | x2 = 0.0996 | x2 = 0.1988 | x2 = 0.3039 | x2 = 0.4042 | x2 = 0.5038 | x2 = 0.602 | x2 = 0.7001 | x2 = 0.8014 | x2 = 0.8988
298.15 K | 0.702 | 0.75 | 0.81 | 0.882 | 0.965 | 1.067 | 1.193 | 1.375 | 1.607
303.15 K | 0.657 | 0.702 | 0.755 | 0.819 | 0.896 | 0.987 | 1.115 | 1.258 | 1.484
308.15 K | 0.619 | 0.659 | 0.706 | 0.765 | 0.835 | 0.915 | 1.027 | 1.168 | 1.373

[Cl-].[Cl-].[Cl-].[Cl-].[Sn+4] + O=C(O)C(Cl)(Cl)Cl
323.15 K, 101 kPa
Settings | viscosity [mPa·s]
x1 = 0.1911 | 2.66
x1 = 0.4139 | 1.448
x1 = 0.667 | 0.959

[Cl-].[Cl-].[Cl-].[Cl-].[Sn+4] + O=C(O)CCl
323.15 K, 101 kPa
Settings | viscosity [mPa·s]
x1 = 0.025 | 3.305
x1 = 0.0506 | 3.944
x1 = 0.0951 | 4.193
x1 = 0.0957 | 4.1
x1 = 0.1491 | 4.17
x1 = 0.2041 | 3.921
x1 = 0.2511 | 2.927
x1 = 0.3456 | 2.003
x1 = 0.4928 | 1.41
x1 = 0.6663 | 0.948
x1 = 0.7708 | 0.836

CCCCCC[N+]1(C)CCOCC1.[Br-] + O=S1(=O)CCCC1
100 kPa, x1 = 0.0998
Settings | viscosity [mPa·s]
293.15 K | 42.16
298.15 K | 34.36
303.15 K | 28.35
308.15 K | 23.7
313.15 K | 20.06
318.15 K | 17.1
323.15 K | 14.72

O=C1CCCN1 + OCCCO
308.15 K, 101 kPa
Settings | viscosity [mPa·s]
x1 = 0.1929 | 22.6
x1 = 0.3918 | 17.83
x1 = 0.4915 | 15.95
x1 = 0.5918 | 14.51
x1 = 0.6929 | 12.9
x1 = 0.897 | 10.06

O=C1CCCN1 + OCCO
101.33 kPa
Settings | viscosity [mPa·s]
298.15 K, x1 = 0.04482 | 16.51
298.15 K, x1 = 0.1032 | 16.1
298.15 K, x1 = 0.2107 | 15.53
298.15 K, x1 = 0.3059 | 15.19
298.15 K, x1 = 0.3998 | 14.98
298.15 K, x1 = 0.4988 | 14.85
298.15 K, x1 = 0.6042 | 14.73
298.15 K, x1 = 0.6866 | 14.62
298.15 K, x1 = 0.7865 | 14.39
298.15 K, x1 = 0.9015 | 13.95
298.15 K, x1 = 0.9371 | 13.76
308.15 K, x1 = 0.05148 | 11.22
308.15 K, x1 = 0.2079 | 10.64
308.15 K, x1 = 0.3048 | 10.4
308.15 K, x1 = 0.3932 | 10.24
308.15 K, x1 = 0.4992 | 10.12
308.15 K, x1 = 0.9078 | 9.505
308.15 K, x1 = 0.952 | 9.341
318.15 K, x1 = 0.04423 | 7.91
318.15 K, x1 = 0.1016 | 7.746
318.15 K, x1 = 0.2104 | 7.505
318.15 K, x1 = 0.318 | 7.342
318.15 K, x1 = 0.3931 | 7.265
318.15 K, x1 = 0.4945 | 7.195
318.15 K, x1 = 0.592 | 7.15
318.15 K, x1 = 0.7035 | 7.089
318.15 K, x1 = 0.7949 | 7.002
318.15 K, x1 = 0.8888 | 6.855
318.15 K, x1 = 0.9417 | 6.74

CCCCCC[N+]1(C)CCOCC1.[Br-] + OCCOCCO
100 kPa, x1 = 0.2003
Settings | viscosity [mPa·s]
293.15 K | 88.12
298.15 K | 66.83
303.15 K | 51.75
308.15 K | 40.85
313.15 K | 32.85
318.15 K | 26.75
323.15 K | 22.17

CCCCCC[N+]1(C)CCOCC1.[Br-] + OCCOCCOCCO
100 kPa, x1 = 0.2005
Settings | viscosity [mPa·s]
293.15 K | 111.2
298.15 K | 83.7
303.15 K | 64.32
308.15 K | 50.24
313.15 K | 40.12
318.15 K | 32.53
323.15 K | 26.79

CN(c1ccccc1)c1ccccc1 + Oc1ccccc1
101 kPa
Settings | viscosity [mPa·s]
293.25 K, x2 = 0.0915 | 7.08
293.25 K, x2 = 0.169 | 7.15
293.25 K, x2 = 0.2877 | 7.3
293.25 K, x2 = 0.4271 | 7.64
293.25 K, x2 = 0.5326 | 7.98
293.25 K, x2 = 0.6464 | 8.45
293.25 K, x2 = 0.7197 | 8.85
293.25 K, x2 = 0.7988 | 9.35
293.25 K, x2 = 0.8785 | 9.95
293.25 K, x2 = 0.942 | 10.48
303.15 K, x2 = 0.0926 | 5.1
303.15 K, x2 = 0.1813 | 5.13
303.15 K, x2 = 0.328 | 5.19
303.15 K, x2 = 0.5156 | 5.42
303.15 K, x2 = 0.6595 | 5.7
303.15 K, x2 = 0.7615 | 5.97
303.15 K, x2 = 0.8443 | 6.26
303.15 K, x2 = 0.9 | 6.5
303.15 K, x2 = 0.9463 | 6.73
313.15 K, x2 = 0.0926 | 3.785
313.15 K, x2 = 0.1813 | 3.76
313.15 K, x2 = 0.328 | 3.77
313.15 K, x2 = 0.5156 | 3.88
313.15 K, x2 = 0.6595 | 4.02
313.15 K, x2 = 0.7615 | 4.15
313.15 K, x2 = 0.8443 | 4.28
313.15 K, x2 = 0.9 | 4.4
313.15 K, x2 = 0.9463 | 4.51

CN(c1ccccc1)c1ccccc1 + Oc1ccccc1Cl
viscosity [mPa·s], 101 kPa
Settings | x2 = 0.1862 | x2 = 0.3326 | x2 = 0.47 | x2 = 0.5927 | x2 = 0.6593 | x2 = 0.7583 | x2 = 0.8455 | x2 = 0.9249
293.15 K | 6.47 | 5.95 | 5.53 | 5.2 | 5.02 | 4.79 | 4.59 | 4.4
303.15 K | 4.635 | 4.305 | 4.03 | 3.805 | 3.685 | 3.51 | 3.36 | 3.215
313.15 K | 3.5 | 3.25 | 3.04 | 2.85 | 2.75 | 2.6 | 2.49 | 2.39

Cc1cc(C)cc(C)c1 + c1ccccc1
viscosity [mPa·s], 101 kPa
Settings | x1 = 0.0992 | x1 = 0.1997 | x1 = 0.3013 | x1 = 0.4024 | x1 = 0.504 | x1 = 0.5997 | x1 = 0.7035 | x1 = 0.7997 | x1 = 0.9018
303 K | 0.5455 | 0.5407 | 0.5421 | 0.546 | 0.5511 | 0.5579 | 0.5714 | 0.5833 | 0.596
313 K | 0.4826 | 0.4807 | 0.4822 | 0.4861 | 0.4905 | 0.4999 | 0.5097 | 0.5201 | 0.5336
323 K | 0.4308 | 0.4229 | 0.4325 | 0.4374 | 0.439 | 0.4507 | 0.4587 | 0.4681 | 0.4791

[Cl-].[Cl-].[Cl-].[Cl-].[Sn+4] + c1ccccc1
viscosity, 101 kPa
Settings | 293.15 K | 313.15 K
x2 = 0.5 | – | 0.5435 mPa·s
x2 = 0.7 | 0.6136 mPa·s | 0.485 mPa·s and 0.4846 mPa·s

NC(=O)c1ccccc1 + c1ccncc1
298.15 K, 101 kPa
Settings | viscosity [mPa·s]
x1 = 0.0343 | 1.055
x1 = 0.08504 | 1.331
